Read-outs that look alike come from different tables or passages of the source.
Legend:
rabbits = experiment: APD 24 hours after AMI in rabbits; type: in vivo, rabbit
Description: 24 hours after AMI, APD is markedly shortened.

anaesthetized rats = settings: for Arrhythmic scores / Lethal risk / Antiarrhythmic effect: X ± SD; for Incidence of VF: n=10; for Death / animals with VF / animals without VF: of n=10

SMILES: COc1ccc2c(c1OC)C[N+]1(Cc3ccc(Cl)cc3)CCc3cc4c(cc3C1C2)OCO4 (stereo not shown) [Compound I13, 7-(4-chlorobenzyl)-5,8,13,13a-tetrahydroberberine chloride]
- effect on APD shortening after AMI (rabbits): could be cancelled
- anti-arrhythmic activity relative to lidocaine (anaesthetized rats; i.v.): 10 times
- inhibition of arrhythmias and VF induced by left coronary artery ligation (anaesthetized rats; i.v. or p.o.): significantly inhibited
- Arrhythmic scores (anaesthetized rats; iv 0.1 mg/kg): 2.4 ± 2.2
- Lethal risk (anaesthetized rats; iv 0.1 mg/kg): 75 ± 30
- Antiarrhythmic effect (anaesthetized rats; iv 0.1 mg/kg, coronary occlusion 5 min): 0.25 ± 0.26
- Antiarrhythmic effect (anaesthetized rats; iv 0.1 mg/kg, coronary occlusion 10 min): 1.7 ± 2.1
- Incidence of VF (anaesthetized rats; iv 0.1 mg/kg): 30%
- Death (anaesthetized rats; iv 0.1 mg/kg): 3
- animals with VF (anaesthetized rats; iv 0.1 mg/kg): 3
- animals without VF (anaesthetized rats; iv 0.1 mg/kg): 4
- Antiarrhythmic effect (anaesthetized rats; iv 0.1 mg/kg, reperfusion 0.17 min): 2.2 ± 2.5
- Antiarrhythmic effect (anaesthetized rats; iv 0.1 mg/kg, reperfusion 0.33 min): 2.1 ± 2.1
- Antiarrhythmic effect (anaesthetized rats; iv 0.1 mg/kg, reperfusion 0.5 min): 2.4 ± 2.2
- Antiarrhythmic effect (anaesthetized rats; iv 0.1 mg/kg, reperfusion 1 min): 2.3 ± 2.6
- Antiarrhythmic effect (anaesthetized rats; iv 0.1 mg/kg, reperfusion 2 min): 1.6 ± 2.1
- Antiarrhythmic effect (anaesthetized rats; iv 0.1 mg/kg, reperfusion 3 min): 1.6 ± 2.1
- Antiarrhythmic effect (anaesthetized rats; iv 0.1 mg/kg, reperfusion 5 min): 1.6 ± 2.1
- Antiarrhythmic effect (anaesthetized rats; iv 0.1 mg/kg, reperfusion 6 min): 2.4 ± 3.4
- Antiarrhythmic effect (anaesthetized rats; iv 0.1 mg/kg, reperfusion 7 min): 0.20 ± 0.26
- Antiarrhythmic effect (anaesthetized rats; iv 0.1 mg/kg, reperfusion 10 min): 0.42 ± 0.19
- Antiarrhythmic effect (anaesthetized rats; iv 0.1 mg/kg, reperfusion 15 min): 0.42 ± 0.19
- Antiarrhythmic effect (anaesthetized rats; iv 0.1 mg/kg, reperfusion 25 min): 0.43 ± 0.19
- Arrhythmic scores (anaesthetized rats; iv 0.3 mg/kg): 1.2 ± 1.7
- Lethal risk (anaesthetized rats; iv 0.3 mg/kg): 57 ± 26
- Antiarrhythmic effect (anaesthetized rats; iv 0.3 mg/kg, coronary occlusion 5 min): 0.6 ± 1.3
- Antiarrhythmic effect (anaesthetized rats; iv 0.3 mg/kg, coronary occlusion 10 min): 0.9 ± 1.9
- Incidence of VF (anaesthetized rats; iv 0.3 mg/kg): 20%
- Death (anaesthetized rats; iv 0.3 mg/kg): 1
- animals with VF (anaesthetized rats; iv 0.3 mg/kg): 2
- animals without VF (anaesthetized rats; iv 0.3 mg/kg): 7
- Antiarrhythmic effect (anaesthetized rats; iv 0.3 mg/kg, reperfusion 0.17 min): 0.9 ± 1.3
- Antiarrhythmic effect (anaesthetized rats; iv 0.3 mg/kg, reperfusion 0.33 min): 1.3 ± 2.0
- Antiarrhythmic effect (anaesthetized rats; iv 0.3 mg/kg, reperfusion 0.5 min): 1.2 ± 1.7
- Antiarrhythmic effect (anaesthetized rats; iv 0.3 mg/kg, reperfusion 1 min): 0.8 ± 1.8
- Antiarrhythmic effect (anaesthetized rats; iv 0.3 mg/kg, reperfusion 2 min): 0.8 ± 1.8
- Antiarrhythmic effect (anaesthetized rats; iv 0.3 mg/kg, reperfusion 3 min): 0.22 ± 0.26
- Antiarrhythmic effect (anaesthetized rats; iv 0.3 mg/kg, reperfusion 5 min): 0.6 ± 1.2
- Antiarrhythmic effect (anaesthetized rats; iv 0.3 mg/kg, reperfusion 6 min): 0.8 ± 1.8
- Antiarrhythmic effect (anaesthetized rats; iv 0.3 mg/kg, reperfusion 7 min): 0.8 ± 1.8
- Antiarrhythmic effect (anaesthetized rats; iv 0.3 mg/kg, reperfusion 10 min): 0.8 ± 1.8
- Antiarrhythmic effect (anaesthetized rats; iv 0.3 mg/kg, reperfusion 15 min): 1.0 ± 2.2
- Antiarrhythmic effect (anaesthetized rats; iv 0.3 mg/kg, reperfusion 25 min): 0.2 ± 0.4
- Arrhythmic scores (anaesthetized rats; iv 1.0 mg/kg): 1.3 ± 1.7
- Lethal risk (anaesthetized rats; iv 1.0 mg/kg): 41 ± 0
- Antiarrhythmic effect (anaesthetized rats; iv 1.0 mg/kg, coronary occlusion 5 min): 0.4 ± 0.2
- Antiarrhythmic effect (anaesthetized rats; iv 1.0 mg/kg, coronary occlusion 10 min): 0.4 ± 0.2
- Incidence of VF (anaesthetized rats; iv 1.0 mg/kg): 0%
- Death (anaesthetized rats; iv 1.0 mg/kg): 0
- animals with VF (anaesthetized rats; iv 1.0 mg/kg): 0
- animals without VF (anaesthetized rats; iv 1.0 mg/kg): 10
- Antiarrhythmic effect (anaesthetized rats; iv 1.0 mg/kg, reperfusion 0.17 min): 1.4 ± 1.4
- Antiarrhythmic effect (anaesthetized rats; iv 1.0 mg/kg, reperfusion 0.33 min): 3.2 ± 2.0
- Antiarrhythmic effect (anaesthetized rats; iv 1.0 mg/kg, reperfusion 0.5 min): 1.6 ± 1.6
- Antiarrhythmic effect (anaesthetized rats; iv 1.0 mg/kg, reperfusion 2 min): 0.20 ± 0.26
- Antiarrhythmic effect (anaesthetized rats; iv 1.0 mg/kg, reperfusion 3 min): 0.20 ± 0.26
- Antiarrhythmic effect (anaesthetized rats; iv 1.0 mg/kg, reperfusion 5 min): 0.20 ± 0.26
- Antiarrhythmic effect (anaesthetized rats; iv 1.0 mg/kg, reperfusion 6 min): 0.20 ± 0.26
- Antiarrhythmic effect (anaesthetized rats; iv 1.0 mg/kg, reperfusion 7 min): 0.20 ± 0.26
- Antiarrhythmic effect (anaesthetized rats; iv 1.0 mg/kg, reperfusion 10 min): 0.20 ± 0.26
- Antiarrhythmic effect (anaesthetized rats; iv 1.0 mg/kg, reperfusion 15 min): 0.10 ± 0.21
- Antiarrhythmic effect (anaesthetized rats; iv 1.0 mg/kg, reperfusion 25 min): 0.10 ± 0.21
- potency relative to propafenon (anaesthetized rats; p.o.): considerably more potent
- Arrhythmic scores (anaesthetized rats; po 10 mg/kg): 2.7 ± 1.9
- Antiarrhythmic effect (anaesthetized rats; po 10 mg/kg, coronary occlusion 5 min): 0.4 ± 0.8
- Antiarrhythmic effect (anaesthetized rats; po 10 mg/kg, coronary occlusion 10 min): 0.50 ± 0.16
- Incidence of VF (anaesthetized rats; po 10 mg/kg): 20%
- animals with VF (anaesthetized rats; po 10 mg/kg): 2
- animals without VF (anaesthetized rats; po 10 mg/kg): 8
- Antiarrhythmic effect (anaesthetized rats; po 10 mg/kg, reperfusion 0.17 min): 2.6 ± 1.8
- Antiarrhythmic effect (anaesthetized rats; po 10 mg/kg, reperfusion 0.33 min): 2.7 ± 1.9
- Antiarrhythmic effect (anaesthetized rats; po 10 mg/kg, reperfusion 0.5 min): 1.9 ± 1.7
- Antiarrhythmic effect (anaesthetized rats; po 10 mg/kg, reperfusion 1 min): 1.9 ± 1.6
- Antiarrhythmic effect (anaesthetized rats; po 10 mg/kg, reperfusion 1.5 min): 1.4 ± 1.3
- Antiarrhythmic effect (anaesthetized rats; po 10 mg/kg, reperfusion 3 min): 1.1 ± 1.5
- Antiarrhythmic effect (anaesthetized rats; po 10 mg/kg, reperfusion 4 min): 1.2 ± 1.4

From US5470852A, “Tetrahydroprotoberberine quaternary ammonium compounds useful in for treating arrhythmia” (priority 1991, dated 1995)
